Data set [1] concerns blood brain barrier (BBB). Kind of data set: brain uptake with and without blood brain barrier disruption. It counts as in vivo, rat. Here is the method: Male Sprague-Dawley rats were anesthetized with sodium pentobarbital and the left external carotid artery was cannulated close to the internal and external carotid bifurcation. Using saline as control and 25% D-mannitol as hypertonic solution, each were perfused retrogradely in six animals (0.3 mL/kg/sec) for 30 seconds. Two minutes later, ˜1 mCi imaging agent 1 was injected via tail vein and the brain was imaged with a microPET camera for 30 minutes. […] Following completion of imaging, the brain was harvested, photographed and dissected into left and right hemispheres and cerebellum. The tissue content of imaging agent 1 radioactivity was measured by gamma counter and Evans blue levels were determined by fluorescence method for calculation of the % injected dose/gram tissue and μg Evan blue/gram tissue, respectively.

For the next data set, the system named is myocardial ischemia. Kind of data set: imaging agent 1 and ^82Rb PET versus ^99mTc sestamibi SPECT, perfusion defect assessment (phase II). Format: in vivo, human. Here is the method: Twenty-six patients (20 men) who underwent ^99mTc sestamibi SPECT and imaging agent 1 PET within 6 months at a single center in a phase II clinical trial were compared to 23 patients (matched by summed difference score (SDS) on SPECT) who underwent ^99mTc sestamibi SPECT and ^82Rb PET (25-50 mCi) within 6 months without change in clinical state. PET was performed with imaging agent 1 at rest (2.3-3.9 mCi) followed 60 min or 24 h later with exercise or adenosine stress (7.3-8.6 mCi). Perfusion defects on SPECT and PET were assessed by computer-assisted visual interpretation, using the standard 17 segment, 5 point-scoring model (0=normal; 4=absent uptake). The extent and severity of ischemia (SDS) was derived from the difference between summed stress score (SSS) and summed rest scores (SRS).
Twenty six patients (20 men) underwent SPECT and PET within 6-months. PET was performed with imaging agent 1 at rest (2.3-3.9 mCi) followed 60 min (n=18) or 24 h (n=8) later with exercise (n=16) or adenosine (n=10) stress (7.3-8.6 mCi). Image quality of SPECT and PET was consensually assessed by 2 independent blinded readers and graded as excellent, good, or fair. Stress and rest perfusion defects on SPECT and PET were assessed by the same readers by computer-assisted visual interpretation, using the standard 17 segment, 5 point-scoring model (0=normal; 4=absent uptake). The extent and severity of ischemia (summed difference score (SDS)) was derived from the difference between summed stress (SSS) and summed rest scores (SRS). Image quality with PET was excellent in 24 and good in 2 patients. In contrast, there were 7 excellent, 18 good, and 1 fair quality study, p<0.001 by SPECT. In 14 patients with abnormal SPECT (SSS≥4), mean SDS was greater with PET than with SPECT (9.6±1.8 vs. 5.4±0.7, p=0.02). In all 12 patients with normal SPECT (SSS<4), SDS was zero by PET and SPECT.

Data set [2] has as its system stress induced myocardial perfusion abnormalities. Briefly: rest-stress imaging agent 1 PET versus Tc-99m Sestamibi SPECT MPI, single center. Format: in vivo, human. The note with it: myocardial segments supplied by diseased coronary arteries, 13 patients. The protocol:
Thirteen patients, from a single center, underwent rest-stress Tc-99m Sestamibi SPECT MPI, rest-stress imaging agent 1 PET MPI and coronary angiography. In each patient, 17 myocardial segments were visually scored for rest and stress images by independent observers who were blinded to all other results. For each patient, summed stress scores (SSS), summed rest scores (SRS), and summed difference scores (SDS) were determined from segmental scores. Percent narrowing in each coronary artery was evaluated blindly and 70% luminal diameter narrowing was considered significant.

[3] abbreviates: 25% D-mannitol compared to saline control.
[4] abbreviates: matched group of 13 patients with abnormal SPECT (^82Rb PET group).

With `Cc1cc(-c2ccc(/N=N/c3ccc4c(S(=O)(=O)O)cc(S(=O)(=O)O)c(N)c4c3O)c(C)c2)ccc1/N=N/c1ccc2c(S(=O)(=O)O)cc(S(=O)(=O)O)c(N)c2c1O` [Evans blue], in data set [1] (setting [3]), the “increase in uptake, cerebellum” value is 186%; the “increase in uptake, left hemisphere” value was found to be 633%; the “increase in uptake, right hemisphere” value is reported as 216%. Also, in data set [1] (BBBD (25% D-mannitol) rats), the “Brain uptake, cerebellum” value was determined as 83 ± 12 µg/g; the “Brain uptake, left hemisphere” value amounted to 154 ± 13 µg/g; the “Brain uptake, right hemisphere” value was determined as 60 ± 8 µg/g. Further, in data set [1] (control (saline) rats), the “Brain uptake, cerebellum” value turned out to be 29 ± 4 µg/g; the “Brain uptake, left hemisphere” value is 21 ± 2 µg/g; the “Brain uptake, right hemisphere” value worked out at 19 ± 2 µg/g.

`[82Rb+].[Cl-]` [^82Rb, rubidium-82 (^82Rb) chloride]: in the data set on myocardial ischemia (setting [4]), the “mean SDS (summed difference score)” value is given as 4.9±1.4. Moreover, the “differences in SDS, PET compared to SPECT” value in the data set with myocardial ischemia (patients with normal SPECT (SSS<4)) is given as “no differences”.

`[C-]#[N+]CC(C)(C)OC.[C-]#[N+]CC(C)(C)OC.[C-]#[N+]CC(C)(C)OC.[C-]#[N+]CC(C)(C)OC.[C-]#[N+]CC(C)(C)OC.[C-]#[N+]CC(C)(C)OC.[Tc]` [^99mTc sestamibi]: the SDS entry with myocardial ischemia (12 patients with normal SPECT (SSS<4)) was “zero”. Further, the “mean SDS (summed difference score)” value in the data set on myocardial ischemia (14 patients with abnormal SPECT (SSS≥4)) is recorded as 5.4±0.7. Further, in the data set with myocardial ischemia (26 patients, 2 blinded readers), the “image quality excellent, number of patients” value amounted to 7; the “image quality fair, number of patients” value was 1; the “image quality good, number of patients” value was determined as 18. The “mean SDS (summed difference score)” value in the data set with myocardial ischemia (setting [4]) stood at 4.6±1.3. Besides, in data set [2], the SDS was found to be 5.4 ± 4.2, the SRS is listed as 3.1 ± 3.3 and the SSS was 8.6 ± 5.8.

These data come from patent publication US10842892B2, “Methods and apparatus for synthesizing imaging agents, and intermediates thereof” (Lantheus Medical Imaging, Inc., priority 2010, dated 2020).
